Reference: US10544154B2, “Opioid receptor antagonist prodrugs” (Nirsum Laboratories, Inc., priority 2017, dated 2020)
≈ marks a conversion by molar mass, not a printed value.

Columns and labels:
[1] = Solubility determination in oil (cottonseed oil, sesame oil), HPLC; details: Heating Temp. 60 °C, Obs. Temp. 25 °C
Description: A known amount of test substance (˜40 mg) was weighed into the vial, 100 μL of oil was added and heated to 60° C. and then system was slurried to reach equilibrium. […] Then the clear solution was placed at room temperature (25° C.) for 24 h to confirm whether there was solid precipitation. Extra oil was added into the vial once compound precipitated out and then the system was re-equilibrated at 1000 rpm at room temperature (25° C.). Final concentration was determined by HPLC method as described below in Table 6a and 6b.

[2] = Equilibrium solubility in water (Table 10); details: for solubility thermodynamic: water, 40 °C, thermodynamic from solid
[3] = Plasma stability, rat plasma (HPLC-MS); assay type: in vitro ADME; details: 10 μM, 37° C.
Description: (§1) Plasma stability determination of the test compounds in rat, dog, cynomolgus monkey and human plasma is performed using HPLC-MS. For rat, incubations are carried out in 96-well polypropylene plates in 5 aliquots of 70 μL each (one for each time point). […] Five time points are analyzed (0, 15, 120, 480 and 1440 min). For dog, monkey and human, test compounds (2 μM, final solvent concentration 1%) were also incubated at 37° C. and analyzed at five time points (0, 10, 30, 60 and 120 min). All incubations are performed in duplicates. The samples are analyzed by HPLC-MS. The percentage of parent compound remaining after incubation in plasma is determined.

[4] = Plasma stability, dog plasma (HPLC-MS); assay type: in vitro ADME; details: 2 μM, 37° C.
Description: as §1

[5] = Plasma stability, cynomolgus monkey plasma (HPLC-MS); assay type: in vitro ADME; details: 2 μM, 37° C., 0 min
Description: (§2) Plasma stability determination of the test compounds in rat, dog, cynomolgus monkey and human plasma is performed using HPLC-MS. For rat, incubations are carried out in 96-well polypropylene plates in 5 aliquots of 70 μL each (one for each time point). […] Five time points are analyzed (0, 15, 120, 480 and 1440 min). […] All incubations are performed in duplicates. The samples are analyzed by HPLC-MS. The percentage of parent compound remaining after incubation in plasma is determined.

[6] = Plasma stability, human plasma (HPLC-MS); assay type: in vitro ADME; details: 2 μM, 37° C.
Description: as §2

[7] = Rat pharmacokinetic studies, intramuscular administration; assay type: in vivo, male Sprague Dawley Rats; details: rat IM 0.80 mg/kg, saline
Description: The purpose of this study is to determine the pharmacokinetics of test compounds in plasma, following intramuscular administration to male Sprague Dawley Rats (n=3, unless otherwise specified).
The dose formulation of 400 mg base equivalents/ml in sesame oil+1% benzyl alcohol (unless otherwise specified) was administered by intramuscular injection. The dose volume was determined by the animals' body weight determined on the morning of dosing day.
Each collected blood sample was centrifuged for 4 minutes at 4° C. and 10000 rpm for plasma collection. Plasma was collected and transferred into a pre-labeled PP tube in dry ice at each time point and precipitated immediately using ACN at a ratio of 1:4 (plasma:ACN). Centrifuged again (10 minutes, 12000 rpm) and obtain the supernatant.
LC-MS/MS methods for the quantitative determination of test compound in biological matrix were developed. […] The sample analysis was performed concurrently with a set of calibration standards and two sets of QC samples using the LC-MS/MS method.
Plasma concentration versus time data was analyzed by non-compartmental approaches using the Phoenix WinNonlin 6.3 software program. Cmax, Tmax, T1/2, AUC(0-t), AUC(0-inf), MRT(0-t), MRT(0-inf) and graphs of plasma concentration versus time profile were prepared.

[8] = Clinical observations for dogs in pharmacokinetic studies; assay type: in vivo, Beagle dogs; details: right leg test article
Description: Weight monitoring was done every week.
The dose formulation (concentration—400 mg base equivalents/ml in sesame oil+1% benzyl alcohol, unless otherwise specified) was administered via deep intramuscularly (unless otherwise specified). The injection vehicle was also dosed via deep intramuscular route (unless otherwise specified) on contralateral site of each animal at study initiation. The animals were sedated with Propofol at 6 mg/kg via IV administration. Following sedation hair was carefully removed from around the injection site and the area gently cleaned. Care will be taken to avoid irritating skin during shaving and cleaning the injection site. Then dogs will be dosed with deep IM administration. At least 2.5 cm depth from the surface into the central aspect of the quadriceps or biceps femoris muscle, by angling the needle toward the femur. If the needle hits the femur, simply draws back slightly and then inject. The dose volume will be determined by the animals' body weight collected on the morning of dosing day. For repeated administration, the injection sites may be rotated to minimize tissue injury.

[9] = Liver S9 fraction stability, cynomolgus monkey; assay type: in vitro ADME; details: 2 μM, 1.0 mg/ml S9 protein, 37° C.
Description: (§3) Liver S9 fraction stability determination of the test compounds in dog, cynomolgus monkey and human is performed using HPLC-MS. Test compound (2 μM, 0.1% DMSO, 1% Methanol final concentration) was assessed for stability in a 50 μl phosphate buffer containing 1.0 mg/ml S9 protein from each of the three species and 5 mM D-saccharic acid-1, 4-lactone. Samples were incubated at 37° C. for 60 minutes and the % compound remaining was assessed.

[10] = Liver S9 fraction stability, human; assay type: in vitro ADME; details: 2 μM, 1.0 mg/ml S9 protein, 37° C.
Description: as §3

[11] = oral dosing; cited from earlier work

Structure (SMILES)	% remaining at time point in minutes, 0 min [3] [%]	% remaining at time point in minutes, 15 min [3] [%]	% remaining at time point in minutes, 480 min [3] [%]	% remaining at time point in minutes, 1440 min [3] [%]	% remaining at time point in minutes, 0 min [4] [%]	% remaining at time point in minutes, 0 min [5] [%]	% remaining at time point in minutes, 0 min [6] [%]	other results
C=C1CC[C@@]2(O)C3Cc4ccc(OC(=O)CCCCCCCCCCC)c5c4[C@@]2(CCN3CC2CC2)[C@H]1O5 [Compound 59, (4aS,7aS,12bS)-3-(cyclopropylmethyl)-4a-hydroxy-7-methylene-2,3,4,4a,5,6,7,7a-octahydro-1H-4,12-methanobenzofuro[3,2-e]isoquinolin-9-yl dodecanoate, reference compound]	100	5.9	0.2	0	–	–	–	Approximate Solubility in Excipient: Cottonseed oil [1]: >414 mg/mL; Approximate Solubility in Excipient: Sesame oil [1]: >393.3 mg/mL; Equilibrium solubility Water ([2]; Heating Temp. 40 °C, Obs. Temp. 40 °C): <1 µg/mL; % remaining at time point in minutes, 120 min [3]: 0.7%
CCCCCCCCCCCC(=O)OCN1C(=O)CCc2ccc(OCCCCN3CCN(c4cccc(Cl)c4Cl)CC3)cc21 [Aripiprazole Lauroxil, reference compound]	100	84	–	46	100	100	100	% remaining at time point in minutes, 120 min ([6]; 120 min): 80%
C=C1CC[C@@]2(O)[C@H]3Cc4ccc(O)c5c4[C@@]2(CCN3CC2CC2)[C@H]1O5.Cl [Nalmefene HCl-IR]	–	–	–	–	–	–	–	AUC0-inf (ng · h/mL) nalmefene [7]: 66.0 ng·h/mL; Terminal Half-life t1/2 (hour) nalmefene [7]: 0.87 h
C=C1CC[C@@]2(O)C3Cc4ccc(OC(=O)CCCCCCC/C=C/CCCCCCCC)c5c4[C@@]2(CCN3CC2CC2)[C@H]1O5 [Compound 15, (4aS,7aS,12bS)-3-(cyclopropylmethyl)-4a-hydroxy-7-methylene-2,3,4,4a,5,6,7,7a-octahydro-1H-4,12-methanobenzofuro[3,2-e]isoquinolin-9-yl (E)-octadec-9-enoate]	100	72	52	35	100	100	100	Clinical observations, R-TA ([8]; 48 mg/kg, Day 35, dogs D1001, D1002, D1003): rashes subside on the leg; Clinical observations, R-TA ([8]; Day 7, dogs D1501, D1502, D1503, dose not given): Swelling 8 * 4 cm; % remaining at time point in minutes, 1440 min ([6]; 1440 min): 109.6%
C=C1CC[C@@]2(O)C3Cc4ccc(OC(=O)OCCCCCCCCCCCC)c5c4[C@@]2(CCN3CC2CC2)[C@H]1O5 [Compound 6, (4aS,7aS,12bS)-3-(cyclopropylmethyl)-4a-hydroxy-7-methylene-2,3,4,4a,5,6,7,7a-octahydro-1H-4,12-methanobenzofuro[3,2-e]isoquinolin-9-yl dodecyl carbonate]	100	–	4	1.6	100	100	100	Liver S9 Fraction Stability, % remaining at 60 minutes, Monkey [9]: 0%; Liver S9 Fraction Stability, % remaining at 60 minutes, Human [10]: 5.3%; % remaining at time point in minutes, 120 min [3]: 7.6%
Oc1ccc2c3c1O[C@H]1[C@H](O)CC[C@@]4(O)[C@@H](C2)N(CC2CC2)CC[C@]314 [6-β-naltrexol]	–	–	–	–	–	–	–	mean elimination half-life [11]: thirteen
C=C1CC[C@@]2(O)[C@H]3Cc4ccc(O)c5c4[C@@]2(CCN3CC2CC2)[C@H]1O5 [nalmefene, 17-cyclopropylmethyl-4,5α-epoxy-6-methylenemorphinan-3,14-diol]	–	–	–	–	–	–	–	solubility thermodynamic [2]: 25 µg/mL (≈ 73.7 µM)
C=C1CC[C@@]2(O)C3Cc4ccc(OC(=O)CCCCCCCCCCCCCCC)c5c4[C@@]2(CCN3CC2CC2)[C@H]1O5 [Compound 56, (4aS,7aS,12bS)-3-(cyclopropylmethyl)-4a-hydroxy-7-methylene-2,3,4,4a,5,6,7,7a-octahydro-1H-4,12-methanobenzofuro[3,2-e]isoquinolin-9-yl palmitate, reference compound]	100	–	–	–	–	–	–	solubility thermodynamic [2]: 6.6 µg/mL (≈ 11.4 µM)
